Here are results for ten compounds from patent publication US9676796B2, “Tricyclic benzoxaborole compound, preparation method and use thereof” (DONG-A ST CO., LTD., priority 2013, dated 2017).

Molecules are shown by their SMILES. Values after ≈ are worked out from the molar mass of the structure shown. Bounds are passed on as bounds.

The subject of assay [1] is E. aerogenes. Briefly: Antibacterial activity in vitro, agar plate dilution MIC. The class given is cell-based, Enterobacter aerogenes. Conditions: Klebsiella aerogenes; clinical isolate, Mueller-Hinton agar dilution. How it is done: (§1) The antibacterial activity of the novel derivatives prepared by EXAMPLE 1 to 5 was evaluated in vitro by agar plate dilution method using Mueller-Hinton agar according to the NCCLS (National Committee for Clinical Laboratory Standards. 2000. Methods for dilution antimicrobial susceptibility tests for bacteria that grow aerobically. Approved standard, NCCLS document M7-A5, 5th ed, vol 20, no. 2. National Committee for Clinical Laboratory Standards, Wayne, Pa.). The test strains were clinical isolates from patients in general hospital in Korea from 2010 to 2013. The antibacterial activity was examined against important gram-negative bacteria including carbapenem-resistant Acinetobacter baumannii (A. baumannii), carbapenem-resistant Pseudomonas aeruginosa (P. aeruginosa), Escherichia coli (E. coli), and Klebsiella pneumonia (K. pneumonia) and was expressed as minimum inhibitory concentrations (MIC, μg/ml) in table 1.
(§2) The antibacterial activity of compounds (in Preparation Examples 1 to 4) and meropenem (MEPM, carbapenem-based antibiotics) were examined according to the same method shown as EXPERIMENTAL EXAMPLE 1.

Assay [2] has as its system C. freundii. The assay is described as above. The class given is cell-based. Conditions: Citrobacter freundii; clinical isolate, Mueller-Hinton agar dilution. How it is done: as §1, §2
Assay [3] deals with E. cloacae. The assay is described as above. The class given is cell-based. Conditions: Enterobacter cloacae; clinical isolate, Mueller-Hinton agar dilution. As to the method:
as §1, §2
In general terms: In agar dilution, organisms are placed on agar that contains the substance at set levels.

The subject of assay [4] is Escherichia coli (E. coli). The assay is described as above. The class given is cell-based. Conditions: clinical isolate, Mueller-Hinton agar dilution. How it is done: as §1, §2
Assay [5] deals with K. oxytoca. The description is as above. The class given is cell-based. The settings on record: Klebsiella oxytoca; clinical isolate, Mueller-Hinton agar dilution. As to the method:
as §1, §2

Assay [6] has as its system Klebsiella pneumoniae (K. pneumoniae). Described as above. The class given is cell-based. Conditions: clinical isolate, Mueller-Hinton agar dilution. How it is done: as §1, §2
Assay [7] relates to M. morganii. The description is as above. The class given is cell-based. Conditions: Morganella morganii; clinical isolate, Mueller-Hinton agar dilution. As to the method:
as §1, §2

The subject of assay [8] is P. mirabilis. The description is as above. The class given is cell-based. Conditions: Proteus mirabilis; clinical isolate, Mueller-Hinton agar dilution. As to the method: as §1, §2
Assay [9] has as its system P. vulgaris. Described as above. Conditions: Proteus vulgaris; clinical isolate, Mueller-Hinton agar dilution. The class given is cell-based. As to the method: as §1, §2
The subject of assay [10] is carbapenem-resistant Acinetobacter baumannii (A. baumannii). Described as above. The class given is cell-based. The settings on record: carbapenem-resistant clinical isolate, Mueller-Hinton agar dilution. As to the method:
as §1, §2

Assay [11] concerns carbapenem-resistant Pseudomonas aeruginosa (P. aeruginosa). The assay is described as above. The class given is cell-based. The settings on record: carbapenem-resistant clinical isolate, Mueller-Hinton agar dilution. As to the method:
as §1, §2

Assay [12] concerns Carbapenem-resistant Acinetobacter baumannii BAA-1605. Briefly: Antibacterial activity in animal infection model (mouse systemic infection). The class given is in vivo. Conditions: for ED50: Acinetobacter baumannii, BAA1605, read-out: ED50 (dose needed for the 50 percentage survival rate); for ED50 times as low as ED50 value of Compound C: mouse systemic infection, A. baumannii BAA-1605, oral. As to the method: Antibacterial activity of the compounds from the present invention was examined in vivo according to the method described in S. Choi et al (Antimicrob. Agents Chemother 56 (9) 4713-4717. 2012).
Carbapenem-resistant Acinetobacter baumannii BAA-1605 was used as test strain and the test strain was intraperitoneally injected into mouse to cause the systemic infection. After 1 hour of infection, the compounds of EXAMPLEs 1, 2, 3, 5 and the control compounds were administrated orally to the mice.

Assay [13] deals with N. gonorrhoeae. Briefly: Antibacterial activity in vitro, agar plate dilution MIC. The class given is cell-based. Conditions: Neisseria gonorrhoeae; clinical isolate, Mueller-Hinton agar dilution.
Assay [14] concerns S. marcescens. The assay is described as above. The class given is cell-based. The settings on record: Serratia marcescens; clinical isolate, Mueller-Hinton agar dilution. How it is done: as §1

With `Cl.NCC1OB2OCCOc3cccc1c32` (centres unmarked) [Compound A, (7,8-dihydro-2H-1,6,9-trioxa-9a-borabenzo[cd]azulen-2-yl)methanamine, reference compound], the MIC (as a rule, the lowest concentration that inhibits growth of the organism) in [1] was determined as 2 mg/L; in assay [2], 1 mg/L; in assay [3], 2 mg/L; in assay [4] it was 2 mg/L; in assay [5] it was 2 mg/L; in assay [6], 4 mg/L. Besides, the MIC in assay [7] was 2 mg/L; in assay [8] it was 8 mg/L; in assay [9] it was 32 mg/L; in assay [10], greater than 128 mg/L; in [11] it was 8 mg/L. Besides, the ED50 (usually the dose that gives a 50% effect, or the effect in half of the subjects) in assay [12] is greater than 20 mg/kg.
In the case of `CC1COc2cccc3c2B(O1)OC3CN.Cl` (centres unmarked) [Compound B, (8-methyl-7,8-dihydro-2H-1,6,9-trioxa-9a-borabenzo[cd]azulen-2-yl)methanamine hydrochloride, reference compound], the MIC in assay [1] was 2 mg/L; in assay [2] it was 1 mg/L; in assay [3] it was 2 mg/L; in assay [4], 2 mg/L; in [5], 2 mg/L; in assay [6], 4 mg/L. Moreover, the minimum inhibitory concentration (MIC) was 4 mg/L in [7]; 8 mg/L in [8]; 16 mg/L in [9]; 8 mg/L in assay [10]; 64 mg/L in assay [11]. In addition, the 50% effective dose (ED50) in assay [12] is greater than 20 mg/kg.
Take `Cl.NC[C@H]1OB2O[C@H](CO)COc3cccc1c32` [Compound C, ((2S,8R)-2-(aminomethyl)-7,8-dihydro-2H-1,6,9-trioxa-9a-borabenzo[cd]azulen-8-yl)methanol hydrochloride, reference compound]: the minimal inhibitory concentration (MIC) in assay [1] was 4 mg/L; in assay [2], 2 mg/L; in [3] it was 2 mg/L; in assay [4], 2 mg/L; in assay [5], 2 mg/L; in assay [6], 2 mg/L. The MIC was 2 mg/L in assay [7]; 8 mg/L in assay [8]; 8 mg/L in assay [9]; 4 mg/L in assay [10]; 8 mg/L in [11]. Moreover, in assay [12], the ED50 is 9.07 mg/kg.
With `CC1COB2OC(CN)c3cccc(c32)O1.Cl` (centres unmarked) [EXAMPLE 1, (7-methyl-7,8-dihydro-2H-1,6,9-trioxa-9a-borabenzo[cd]azulen-2-yl)methanamine hydrochloride], the minimum inhibitory concentration (MIC) stood at 4 mg/L in assay [1]; 1 mg/L in assay [2]; 2 mg/L in assay [3]; 2 mg/L in assay [4]; 2 mg/L in assay [5]; 2 mg/L in [6]. For the same compound, the MIC worked out at 2 mg/L in assay [7]; 2 mg/L in assay [8]; 4 mg/L in [9]; 4 mg/L in assay [10]; 32 mg/L in assay [11]; 2 mg/L in assay [13]. The compound also displayed an MIC in assay [14] of 4 mg/L. For the same compound, the ED50 in [12] is 1.75 mg/kg. The “ED50 times as low as ED50 value of Compound C” value (“ED50 times as low as ED50 value” below) in assay [12] amounted to 5.18 times.
On to `CC1COB2O[C@H](CN)c3cccc(c32)O1.Cl` (stereo partly drawn) [EXAMPLE 2, ((2S)-7-methyl-7,8-dihydro-2H-1,6,9-trioxa-9a-borabenzo[cd]azulen-2-yl)methanamine hydrochloride], for which the minimum inhibitory concentration (MIC) is 2 mg/L in assay [1]; 1 mg/L in assay [2]; 1 mg/L in assay [3]; 1 mg/L in [4]; 2 mg/L in assay [5]; 2 mg/L in assay [6]. Also, the MIC was determined as 1 mg/L in assay [7]; 2 mg/L in [8]; 2 mg/L in assay [9]; 2 mg/L in [10]; 8 mg/L in [11]; 1 mg/L in assay [13]. In assay [14], this compound displayed an MIC of 4 mg/L. Further, in assay [12], the ED50 is 1.36 mg/kg. Further, in assay [12], the “ED50 times as low as ED50 value” value worked out at 6.69 times.
Regarding `C[C@@H]1COB2O[C@H](CN)c3cccc(c32)O1.Cl` [EXAMPLE 3, ((2S,7R)-7-methyl-7,8-dihydro-2H-1,6,9-trioxa-9a-borabenzo[cd]azulen-2-yl)methanamine hydrochloride], the minimum inhibitory concentration (MIC) in [1] was 2 mg/L; in assay [2], 1 mg/L; in assay [3], 1 mg/L; in assay [4], 1 mg/L; in assay [5], 1 mg/L; in [6], 2 mg/L. Also, the MIC in [7] is 1 mg/L; in assay [8], 2 mg/L; in [9], 2 mg/L; in [10] it was 1 mg/L; in assay [11] it was 16 mg/L; in assay [13], 0.5 mg/L. Inhibition of growth in assay [14] (MIC) required 4 mg/L. Further, the ED50 in [12] amounted to 0.909 mg/kg. Further, the “ED50 times as low as ED50 value” value in assay [12] is 9.98 times.
Turning to `C[C@H]1COB2O[C@H](CN)c3cccc(c32)O1.Cl` [EXAMPLE 5, ((2S, 7S)-7-methyl-7,8-dihydro-2H-1,6,9-trioxa-9a-borabenzo[cd]azulen-2-yl)methanamine hydrochloride], the MIC in assay [1] stood at 4 mg/L; in assay [2], 1 mg/L; in assay [3], 1 mg/L; in [4], 1 mg/L; in [5], 2 mg/L; in assay [6] it was 2 mg/L. For the same compound, the MIC in [7] turned out to be 0.5 mg/L; in assay [8], 2 mg/L; in assay [9], 2 mg/L; in assay [10], 4 mg/L; in [11], 8 mg/L; in [13] it was 2 mg/L. In assay [14], this compound registered an MIC of 4 mg/L. Besides, in [12], the ED50 came out at 1.36 mg/kg. Besides, in assay [12], the “ED50 times as low as ED50 value” value is given as 6.69 times.
On to `C[C@@H](O)[C@H]1C(=O)N2C(C(=O)O)=C(S[C@@H]3CN[C@H](C(=O)N(C)C)C3)[C@H](C)[C@H]12` [MEPM, meropenem, reference compound], for which the MIC in assay [1], in [2], in assay [3], in [4], in assay [5] and in [6] was less than 0.0313 mg/L each time. For the same compound, the MIC in [7] is 0.125 mg/L (≈ 0.326 µM); in [8], 0.0625 mg/L (≈ 0.163 µM); in assay [9] it was 0.0625 mg/L (≈ 0.163 µM); in assay [10], 32 mg/L (≈ 83.4 µM); in assay [11], 32 mg/L (≈ 83.4 µM).
For the compound `C[C@@H]1COB2O[C@H](CN)c3cccc(c32)O1` [compound 4, ((2S,7R)-7-methyl-7,8-dihydro-2H-1,6,9-trioxa-9a-borabenzo[cd]azulen-2-yl) methanamine], the MIC in [1] was 1 mg/L (≈ 4.57 µM); in assay [2] it was 0.5 mg/L (≈ 2.28 µM); in assay [3], 1 mg/L (≈ 4.57 µM); in assay [4] it was 1 mg/L (≈ 4.57 µM); in assay [5], 1 mg/L (≈ 4.57 µM); in assay [6] it was 1 mg/L (≈ 4.57 µM). The MIC in [7] stood at 0.5 mg/L (≈ 2.28 µM); in assay [8], 1 mg/L (≈ 4.57 µM); in assay [9] it was 1 mg/L (≈ 4.57 µM); in [10], 1 mg/L (≈ 4.57 µM); in assay [11] it was 8 mg/L (≈ 36.5 µM); in [13], 0.5 mg/L (≈ 2.28 µM). In assay [14], this compound yielded an MIC of 2 mg/L (≈ 9.13 µM).
Take `Cl.NCC1OB2OCC(CO)Oc3cccc1c32` (centres unmarked) [compound D, (2-(aminomethyl)-7,8-dihydro-2H-1,6,9-trioxa-9a-borabenzo[cd]azulen-7-yl)methanol hydrochloride, reference compound]: the MIC in assay [1] was 8 mg/L; in assay [2] it was 4 mg/L; in [3], 8 mg/L; in [4], 8 mg/L; in assay [5] it was 8 mg/L; in assay [6], 16 mg/L. For the same compound, the minimal inhibitory concentration (MIC) in assay [7] turned out to be 8 mg/L; in [8], 16 mg/L; in [9] it was 16 mg/L; in assay [10] it was 16 mg/L; in assay [11] it was 64 mg/L.
